Laboratory results: publication PMC12097107, “Identification and Biological Evaluation of a Novel CLK4 Inhibitor Targeting Alternative Splicing in Pancreatic Cancer Using Structure‐Based Virtual Screening” (Advanced Science, 2025)

What was measured:
[1] = molecular target: T1, CLK4 (Cdc-like kinase 4; Cdc2-like kinase 4) (Homo sapiens, UniProt Q9HAZ1); experiment: LanthaScreen Eu kinase binding assay (FRET)
Text: (§1) LanthaScreen Eu kinase binding assay (FRET) on CLK4 (Cdc-like kinase 4; Cdc2-like kinase 4)

CLK3 [2] = molecular target: T2, CLK3 (Homo sapiens, UniProt P49761); experiment: biochemical; set-up: Thermo Fisher SelectScreen kinase assays (LanthaScreen Eu binding, Adapta or Z'LYTE), per cent inhibition
T2 construct: Thermo Fisher SelectScreen panel kinase
Experimental: (§2) Enzyme‐based assays were carried out by Thermo Fisher Scientific (Waltham, MA, USA). Thermo Fisher Scientific utilizes LanthaScreen Eu Kinase Binding Assay Technology (www.thermofisher.com/lanthascreen), which is based on fluorescence resonance energy transfer (FRET), to conduct the kinase activity assays. Fluorescent receptor dyes are conjugated to the kinase, and an Eu‐labeled anti‐tag antibody is added to detect the phosphorylated fluorescein‐labeled substrate. The fluorescence‐labeled kinase, antibody, and test compounds are combined in an appropriate buffer solution. After incubation, the mixture is placed in a fluorescent plate reader capable of detecting FRET signals. FRET efficiency is calculated by comparing the ratio of the acceptor emission to the donor emission. The selected compounds were evaluated at specified concentrations, and IC50 values were determined using GraphPad Prism software (La Jolla, CA, USA). Each enzymatic activity assay was performed in duplicate, following the quality control guidelines of Thermo Fisher Scientific. Kinase profiling was carried out using the SelectScreen kinase profiling service provided by Thermo Fisher Scientific, with supplementary assays such as Adapta and Z'LYTE included when available for the respective kinases. The detailed protocols are available at the following links: www.thermofisher.com/adapta and https://www.thermofisher.com/z‐lyte. Selectivity is essential for kinase inhibitors to minimize off‐target effects and reduce adverse reactions. Selective inhibitors also enable researchers to better understand the specific functions of targets like CLK4 in physiological and pathological pathways. Therefore, we further evaluated the selectivity of compound 150441 using kinase profiling analysis. The compound was tested at a concentration of 30 nM against a panel of 60 kinases from various families using Thermo Fisher SelectScreen kinase profiling services (Figure 7 ). […] In addition, CLKs comprise four isoforms: CLK1, CLK2, CLK3, and CLK4.

CLK1 [3] = molecular target: T3, CLK1 (Homo sapiens, UniProt P49759); experiment: biochemical; set-up: Thermo Fisher SelectScreen kinase assays (LanthaScreen Eu binding, Adapta or Z'LYTE), per cent inhibition
T3 construct: Thermo Fisher SelectScreen panel kinase
Experimental: as §2

[4] = molecular target: T1, CLK4 (Cdc-like kinase 4; Cdc2-like kinase 4); experiment: biochemical; set-up: Thermo Fisher SelectScreen kinase assays (LanthaScreen Eu binding, Adapta or Z'LYTE), per cent inhibition
Experimental: as §2

CLK2 [5] = molecular target: T4, CLK2 (Homo sapiens, UniProt P49760); experiment: biochemical; set-up: Thermo Fisher SelectScreen kinase assays (LanthaScreen Eu binding, Adapta or Z'LYTE), per cent inhibition
T4 construct: Thermo Fisher SelectScreen panel kinase
Experimental: as §2

CLK3 [6] = molecular target: T2, CLK3; experiment: SelectScreen kinase profiling (assay format per kinase not given); type: biochemical; settings: read-out: % inhibition at 30 nM
CLK2 [7] = molecular target: T4, CLK2; experiment: as above; type: biochemical; settings: read-out: % inhibition at 30 nM
CLK1 [8] = molecular target: T3, CLK1; experiment: as above; type: biochemical; settings: read-out: % inhibition at 30 nM
[9] = molecular target: T1, CLK4 (Cdc-like kinase 4; Cdc2-like kinase 4); experiment: LanthaScreen Eu kinase binding assay (FRET); type: biochemical
Text: as §1

T1 sequence (Q9HAZ1 whole entry): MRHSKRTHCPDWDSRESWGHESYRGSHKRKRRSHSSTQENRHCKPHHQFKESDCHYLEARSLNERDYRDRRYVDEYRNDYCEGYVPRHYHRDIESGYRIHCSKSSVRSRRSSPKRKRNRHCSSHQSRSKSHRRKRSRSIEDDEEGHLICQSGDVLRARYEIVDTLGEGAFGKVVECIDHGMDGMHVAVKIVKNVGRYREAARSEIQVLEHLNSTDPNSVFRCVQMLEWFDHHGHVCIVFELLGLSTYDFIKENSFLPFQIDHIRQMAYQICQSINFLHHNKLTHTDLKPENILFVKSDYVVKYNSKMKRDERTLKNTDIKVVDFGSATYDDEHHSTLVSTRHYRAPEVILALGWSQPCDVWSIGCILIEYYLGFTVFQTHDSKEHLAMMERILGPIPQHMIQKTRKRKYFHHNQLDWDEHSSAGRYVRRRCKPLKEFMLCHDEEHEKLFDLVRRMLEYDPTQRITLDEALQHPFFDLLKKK
T2 sequence (P49761 whole entry): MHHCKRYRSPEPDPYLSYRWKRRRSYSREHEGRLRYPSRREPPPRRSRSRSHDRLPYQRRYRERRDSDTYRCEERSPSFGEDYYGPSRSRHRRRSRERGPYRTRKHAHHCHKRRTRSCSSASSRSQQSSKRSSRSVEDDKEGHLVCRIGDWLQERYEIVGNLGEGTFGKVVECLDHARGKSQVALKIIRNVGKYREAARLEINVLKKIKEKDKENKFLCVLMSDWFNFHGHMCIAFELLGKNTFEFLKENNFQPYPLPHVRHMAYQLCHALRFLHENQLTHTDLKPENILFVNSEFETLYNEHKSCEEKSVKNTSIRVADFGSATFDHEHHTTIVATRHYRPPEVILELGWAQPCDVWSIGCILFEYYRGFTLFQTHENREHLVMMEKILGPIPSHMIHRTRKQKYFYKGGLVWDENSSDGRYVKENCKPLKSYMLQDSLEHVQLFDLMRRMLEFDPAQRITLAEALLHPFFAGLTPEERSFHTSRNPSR
T4 sequence (P49760 whole entry): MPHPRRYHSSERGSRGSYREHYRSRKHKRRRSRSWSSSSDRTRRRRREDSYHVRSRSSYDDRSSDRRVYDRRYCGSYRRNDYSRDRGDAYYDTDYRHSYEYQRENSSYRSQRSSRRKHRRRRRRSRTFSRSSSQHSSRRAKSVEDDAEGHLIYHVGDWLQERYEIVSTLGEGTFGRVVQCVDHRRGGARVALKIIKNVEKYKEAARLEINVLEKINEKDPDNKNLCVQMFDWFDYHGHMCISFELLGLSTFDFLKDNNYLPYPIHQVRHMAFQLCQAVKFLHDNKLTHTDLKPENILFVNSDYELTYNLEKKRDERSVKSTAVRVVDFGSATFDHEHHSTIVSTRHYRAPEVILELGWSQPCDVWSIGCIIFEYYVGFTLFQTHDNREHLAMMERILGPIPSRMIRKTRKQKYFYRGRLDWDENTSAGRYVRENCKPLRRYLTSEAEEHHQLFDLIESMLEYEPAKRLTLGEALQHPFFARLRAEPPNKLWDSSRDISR
T3 sequence (P49759 whole entry): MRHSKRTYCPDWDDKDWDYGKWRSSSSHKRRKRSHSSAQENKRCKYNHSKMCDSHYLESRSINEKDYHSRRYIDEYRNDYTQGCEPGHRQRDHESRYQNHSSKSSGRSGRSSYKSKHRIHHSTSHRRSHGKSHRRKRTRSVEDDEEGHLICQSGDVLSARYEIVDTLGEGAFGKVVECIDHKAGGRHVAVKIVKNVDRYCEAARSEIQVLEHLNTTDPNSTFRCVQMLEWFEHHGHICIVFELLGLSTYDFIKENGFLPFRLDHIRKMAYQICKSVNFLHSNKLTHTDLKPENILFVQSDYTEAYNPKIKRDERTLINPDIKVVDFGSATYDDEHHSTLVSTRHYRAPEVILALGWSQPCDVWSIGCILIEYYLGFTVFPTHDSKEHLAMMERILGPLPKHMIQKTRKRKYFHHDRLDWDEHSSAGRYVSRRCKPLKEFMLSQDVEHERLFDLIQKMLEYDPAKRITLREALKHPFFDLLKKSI

Row | SMILES | IC50 [1] [nM] | inhibition at 1 µM (CLK3 [2]) [%] | inhibition at 1 µM (CLK1 [3]) [%] | inhibition at 1 µM [4] [%] | inhibition at 1 µM (CLK2 [5]) [%] | also measured
1 | COc1ccc2[nH]c3c(C)c4ccncc4c(C)c3c2c1 [compound 69187, 69187] | 98.8 | – | – | – | – | –
2 | Cc1c2cnccc2c(C)c2c1c1ccccc1n2CCN(C)C [compound 150441, 150441] | 21.4 | 6 | 75 | 98 | 62 | inhibition at 0.03 µM (CLK3 [6]): 1.8%; inhibition at 0.03 µM (CLK2 [7]): 9.1%; inhibition at 0.03 µM (CLK1 [8]): 7%
3 | COc1ccc2c(c1)c1c(C)c3cnccc3c(C)c1n2CC1CO1 (centres unmarked) [compound 150836, 150836] | 101 | – | – | – | – | –
4 | Cc1c2cnccc2c(C)c2c1c1ccccc1n2CC1CO1 (centres unmarked) [compound 152731, 152731] | 38.2 | 4 | 86 | 98 | 81 | –
5 | Cc1c2cnccc2c(C)c2c1c1ccccc1n2CCNCc1ccccc1 [compound 164016, 164016] | 34.8 | 7 | 65 | 95 | 69 | –
6 | COc1ccc2[nH]c3c(C)c4cc[n+]([O-])cc4c(C)c3c2c1 [compound 237069, 237069] | – | – | – | – | – | inhibition at 1 µM [9]: 47%
7 | Cc1c2c(C(N)=O)nccc2c(C)c2c1c1ccccc1n2Cc1ccccc1 [compound 320613, 320613] | – | – | – | – | – | inhibition at 1 µM [9]: 3%
8 | Cc1c2cnccc2c(C)c2c1c1ccccc1n2Cc1ccccc1 [compound 322087, 322087] | 121 | – | – | – | – | –
